Assay [1] has as its target T1, KAT6A (Homo sapiens, UniProt Q92794).
T1 construct: Recombinant human His-tagged Kat6a protein (amino acids 194-810); His; made in house; host or cells: Baculovirus-infected Sf9 insect cells
Put plainly: Kat6a activity assay (TR-FRET, acetylation of biotinylated histone H4 peptide). The assay is classed as biochemical. The following applies: recombinant human His-tagged Kat6a (amino acids 194-810), 60 mins at 22° C., read-out: KAT6A-DPF/HAT domain IC50 [mol/l] (arithmetic mean). From the text:
Kat6a inhibitory activities of the compounds described in the present invention were quantified using a Fluorescence Resonance Energy Transfer (TR-FRET) assay which measures acetylation of a synthetic, biotinylated Histone-H4-derived peptide by the enzyme.
Recombinant human His-tagged Kat6a protein (amino acids 194-810), was purified in-house from Baculovirus-infected insect cells (Sf9). Histone H4 peptide (amino acids 1-24, […]-VLRD-K(Btn)-amide), which was used as substrate, was synthesized by Biosyntan GmbH, Berlin, Germany. Acetyl Coenzyme A was purchased from Sigma-Aldrich (#A-2056).
Kat6a was incubated for 60 mins at 22° C. in the presence of different concentrations of test substances (0 μM, and within the range 0.01-20 μM) in assay buffer [25 mM Tris/HCl pH 8, 1 mM EGTA, 2.5 mM Glutathion, 0.02% Chicken Albumin, 0.05% Pluronic F127, 25 mM NaCl, 220 nM H4 peptide and 600 nM Acetyl Coenzyme A].
The reaction was stopped by addition of Detection Solution (25 mM HEPES pH 7.5, 0.1% BSA, 22 nM SAXL665 (Cisbio #610SAXLE), 100 μM Anacardic Acid (Enzo #ALX-270-381), 1 nM Anti-Histone H4 (ACETYL K8) Antibody (ABCAM #AB15823) and 0.5 nM Anti-Rabbit IgG Eu (Perkin Elmer #AD0083).
The fluorescence emission at 620 nm and 665 nm after excitation at 330-350 nm was measured in a TR-FRET measuring instrument, for instance a Rubystar or a Pherastar (both from BMG Lab Technologies, Offenburg, Germany) or a Viewlux (Perkin-Elmer). The ratio of the emission at 665 nm and at […] was used as indicator of the amount of acetylated peptide.
The resulting data (ratio) were normalized, taking 0% inhibition as the mean value of control measurements where all reagents were included. In this case 50 nl DMSO were used instead of compounds. […] IC50 values were determined by regression analysis based on a 4 parameter equation (minimum, maximum, ICM, Hill; Y=Max+(Min−Max)/(1+(X/ICso) Hill) using the Screener Software (Genedata).
(TR-FRET usually uses a lanthanide donor and a delayed reading to cut background.)

Assay [2] concerns MDA-MB-436 cells. Kind of assay: Proliferation assay in MDA-MB-436 cells (negative control cell line). The following applies: Homo sapiens, 144 h, Alamar Blue, read-out: MDA-MB-436 proliferation assay, EC50[M] (arithmetic mean). In kind it is cell-based. From the text: (§1) For compound characterization cell survival assays were routinely run in two cell lines. ZR-75-1 is a breast carcinoma cell line containing a focal KAT6A amplification and high KAT6A protein expression. Proliferation of this cell line is inhibited upon treatment with KAT6A inhibitors. As a negative control cell line MDA-MB-436 were used. These cells carry a […] deletion of the KAT6A gene, have a low KAT6A protein expression and are not growth inhibited upon treatment with KAT6A inhibitors.
(§2) For measurements cell lines were plated at the below indicated concentration per […] in 96-well plates in a humidified incubator at 37° C. and 5% CO2.
(§3) ZR-75-1 (ATCC, CRL-1500; breast carcinoma); 3000 cells per well; culture medium: RPMI 1640 (Biochrom #FG 1215) medium containing 2.5% FBS (Biochrom #S0615). LCLC-97TM1 (DSMZ, ACC 388; large cell lung carcinoma); 6000 cells per well; culture medium: RPMI 1640 (Biochrom #FG 1215) medium containing 2.5% FBS (Biochrom #S0615). MDA-MB-436 (CLS, 300278; breast adenocarcinoma); 3000 cells per well; culture medium: DMEM/Ham's F12 (Biochrom #FG 4815) medium containing 2.5% FBS (Biochrom #S0615).
(§4) Each sample was prepared as triplicate and rim wells were excluded. Plates were incubated at 37° C. and 5% CO2 for 144 h. Cell viability was measured by adding 10 μL of Alamar Blue Reagent (Invitrogen #DAL 1100) and plates were incubated for 2 h at 37° C. and 5% CO2. Fluorescence was measured at 590 nm wavelength with a Tecan Spark or Victor X3 MTP-Reader (PerkinElmer).
For orientation: Alamar Blue is a resazurin reagent that responds to reducing activity.

Assay [3] relates to ZR-75-1 cells. Kind of assay: Proliferation assay in ZR-75-1 cells. In kind it is cell-based. As to conditions: Homo sapiens, 144 h, Alamar Blue, read-out: ZR75-1 proliferation assay, EC50[M] (arithmetic mean).
Text: as §1, §2, §3, §4

Assay [4] relates to ESR1 transcription in MVLN cells. Put plainly: Repression of ESR1 transcription, MVLN luciferase reporter assay. The assay is classed as cell-based. As to conditions: Homo sapiens, luciferase signal after 24 h, read-out: MVLN reporter assay, IC50[M] (arithmetic mean). From the text: KAT6A controls transcription of the ESR1 gene in breast cancer cells. Compound treatment that interferes with this mechanism was quantified using MVLN cells. These cells constitutively express the ER and are stably transfected with the luciferase (LUC) reporter gene and the corresponding hormone responsive element derived from the 5′-flanking region of the Xenopus Vitellogenin A2 gene (Pons et al., 1990, Demirpense et al., 1993, Joyeux et al., 1993). The repressive effect on ERα transcription activity of a test chemical is directly related to the luciferase measured in the lysate of treated MVLN cells.
Each sample was prepared as duplicate and rim wells were excluded. For luciferase signal determination 100 μl of a 1:1 mixture of Steadylite plus (Perkin Elmer; 6016759) and assay medium was added after 24 h for 15 minutes and measured in Victor X3 (Perkin Elmer). To exclude any effects caused by cell loss during the treatment, cell density was determined using Alamar Blue (Invitrogen; DAL1100). Prior to the luciferase measurement 10 μl Alamar Blue were added to each well and the plates were incubated for 2 h in the incubator. Then fluorescence was measured with Victor X3 (Perkin Elmer) at 530 nm/590 nm.
A general note: A reporter such as luciferase makes a cellular process visible.

Assay [5] concerns LCLC-97TM1 cells. Put plainly: Proliferation assay in LCLC-97TM1 cells. In kind it is cell-based. As to conditions: Homo sapiens, 144 h, Alamar Blue, read-out: LCLC97TM1 proliferation assay, EC50[M] (arithmetic mean). The procedure: as §2, §3, §4

pIC50: −log10 of the molar value.

By IC50 is commonly meant the midpoint of a concentration-inhibition curve.

T1 sequence (Q92794 194-810): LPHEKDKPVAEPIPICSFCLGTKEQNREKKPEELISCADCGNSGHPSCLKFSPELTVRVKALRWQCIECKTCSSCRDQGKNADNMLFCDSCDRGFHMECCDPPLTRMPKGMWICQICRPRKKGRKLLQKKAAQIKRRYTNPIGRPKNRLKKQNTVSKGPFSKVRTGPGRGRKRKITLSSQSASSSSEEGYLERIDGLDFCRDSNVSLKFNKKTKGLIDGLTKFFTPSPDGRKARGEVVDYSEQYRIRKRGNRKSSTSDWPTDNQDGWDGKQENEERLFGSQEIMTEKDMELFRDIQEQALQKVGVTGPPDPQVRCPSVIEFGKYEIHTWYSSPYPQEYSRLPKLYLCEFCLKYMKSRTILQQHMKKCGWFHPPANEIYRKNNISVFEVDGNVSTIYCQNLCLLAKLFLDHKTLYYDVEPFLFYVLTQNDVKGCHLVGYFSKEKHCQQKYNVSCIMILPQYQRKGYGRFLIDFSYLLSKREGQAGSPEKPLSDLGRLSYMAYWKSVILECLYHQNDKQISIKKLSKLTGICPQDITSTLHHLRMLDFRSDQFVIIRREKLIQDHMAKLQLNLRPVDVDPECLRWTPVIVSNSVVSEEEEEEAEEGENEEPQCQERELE

On to `N#Cc1ccc2cc(C(=O)NS(=O)(=O)c3ccccc3-c3ccccc3)oc2c1` [Example 3, N-([1,1′-biphenyl]-2-sulfonyl)-6-cyano-1-benzofuran-2-carboxamide], for which, in assay [1], the pIC50 is less than 4.70. Moreover, the EC50 in assay [2] and in assay [3] was greater than 2e-05 M each time.
With `O=C(NS(=O)(=O)c1ccccc1-c1ccccc1)c1cc2ccc(-c3cccnc3)cc2o1` [Example 4, N-([1,1′-biphenyl]-2-sulfonyl)-6-(pyridin-3-yl)-1-benzofuran-2-carboxamide], in assay [1], the pIC50 was 4.82. Moreover, the EC50 in assay [2], in assay [3] and in assay [5] was greater than 2e-05 M throughout. Besides, the IC50 in assay [4] amounted to 1.98e-05 M.
With `O=C(O)c1ccc2cc(C(=O)NS(=O)(=O)c3ccccc3-c3ccccc3)oc2c1` [Example 5, 2-[([1,1′-biphenyl]-2-sulfonyl)carbamoyl]-1-benzofuran-6-carboxylic acid], in assay [1], the pIC50 is 5.24. In addition, the EC50 in assay [2] and in assay [3] was greater than 2e-05 M throughout. Moreover, the IC50 in assay [4] was greater than 2e-05 M.
For `CN(C)C(=O)c1ccc2cc(C(=O)NS(=O)(=O)c3ccccc3-c3ccccc3)oc2c1` [Example 8, N^2-([1,1′-biphenyl]-2-sulfonyl)-N^6,N^6-dimethyl-1-benzofuran-2,6-dicarboxamide], the pIC50 in assay [1] was 4.76. The EC50 in assay [2] and in assay [3] was greater than 2e-05 M in each case. Also, in assay [4], the IC50 was greater than 2e-05 M.
For `Cc1ccc2c(C)c(C(=O)NS(=O)(=O)c3ccccc3-c3ccccc3)oc2c1` [Example 14, N-([1,1′-biphenyl]-2-sulfonyl)-3,6-dimethyl-1-benzofuran-2-carboxamide], the pIC50 in assay [1] was 6.34. The EC50 was greater than 2e-05 M in assay [2], 8.7e-06 M in assay [3] and 9.97e-06 M in assay [5]. The half-inhibitory concentration (IC50) in assay [4] was 4.11e-06 M.
The like results for `O=C(NS(=O)(=O)c1ccccc1-c1ccccc1)c1cc2ccc(C3CC3)c(F)c2o1` [Example 15, N-([1,1′-biphenyl]-2-sulfonyl)-6-cyclopropyl-7-fluoro-1-benzofuran-2-carboxamide] were, in that order, 6.04, greater than 2e-05 M, 8.42e-06 M, greater than 2e-05 M and 6.75e-06 M.
The matching figures for `CCOc1ccccc1S(=O)(=O)NC(=O)c1oc2cc(C)ccc2c1C` [Example 18, N-(2-Ethoxybenzene-1-sulfonyl)-3,6-dimethyl-1-benzofuran-2-carboxamide]: 6.08, greater than 2e-05 M, 5.01e-06 M, 1.06e-05 M and 5.56e-06 M.
The matching figures for `Cc1ccc2cccc(S(=O)(=O)NC(=O)c3cc4ccc(C(F)(F)F)cc4o3)c2n1` [Example 19, N-(2-Methylquinoline-8-sulfonyl)-6-(trifluoromethyl)-1-benzofuran-2-carboxamide]: 6.14, greater than 2e-05 M, 4.94e-06 M, greater than 2e-05 M and 3.63e-06 M.
With `O=C(NS(=O)(=O)c1ccccc1-c1ccccc1)c1cc2ccc(-c3ccncc3)cc2o1` [Example 20, N-([1,1′-Biphenyl]-2-sulfonyl)-6-(pyridin-4-yl)-1-benzofuran-2-carboxamide], the pIC50 in assay [1] was less than 4.70. In addition, the EC50 was greater than 2e-05 M in assay [2] and 3.49e-06 M in assay [3].
With `C=C(C)c1ccc2cc(C(=O)NS(=O)(=O)c3ccccc3-c3ccccc3)oc2c1` [Example 23, N-([1,1′-biphenyl]-2-sulfonyl)-6-(prop-1-en-2-yl)-1-benzofuran-2-carboxamide], the EC50 in assay [2] is greater than 2e-05 M; in assay [3], 1.15e-06 M.
With `CCOc1ccc(C(C)CC)cc1S(=O)(=O)NC(=O)c1cc2c(F)cc(C3CC3)cc2o1` (stereo not drawn) [Example 29, 6-Cyclopropyl-N-(2-ethoxy-5-sec-butyl-phenyl)sulfonyl-4-fluoro-benzofuran-2-carboxamide], in assay [1], the pIC50 was 8.74. Besides, the figures for the EC50 in assay [2], in assay [3] and in assay [5] were greater than 2e-05 M, 8.86e-08 M and 2.77e-07 M, respectively. Also, the half-maximal inhibitory concentration (IC50) in assay [4] was found to be 7.41e-08 M.
Turning to `O=C(NS(=O)(=O)c1ccc(Cl)cc1Cl)c1cc2c(F)cc(C3CC3)cc2o1` [Example 37, 6-Cyclopropyl-N-(2,4-dichlorophenyl)sulfonyl-4-fluoro-benzofuran-2-carboxamide], in assay [1], the pIC50 is 7.11. For the same molecule, the figures for the EC50 in assay [2], in assay [3] and in assay [5] were greater than 2e-05 M, 6.28e-06 M and greater than 2e-05 M, respectively. Besides, the IC50 in assay [4] stood at 1.06e-05 M.
Take `CCOc1ccccc1S(=O)(=O)NC(=O)c1cc2c(C(F)(F)F)cc(C3CC3)cc2o1` [Example 51, 6-Cyclopropyl-N-(2-ethoxyphenyl)sulfonyl-4-(trifluoromethyl)benzofuran-2-carboxamide]: the pIC50 in assay [1] is 7.59. Also, in assay [4], the IC50 was determined as 2.98e-06 M. The EC50 in assay [3] was found to be 9.14e-06 M.
The like results for `O=C(NS(=O)(=O)c1ccccc1)c1cc2c(C(F)(F)F)cc(C3CC3)cc2o1` [Example 52, N-(Benzenesulfonyl)-6-cyclopropyl-4-(trifluoromethyl)benzofuran-2-carboxamide] were, in that order, 6.86, 1.88e-05 M and 7.32e-06 M.
The matching figures for `O=C(NS(=O)(=O)c1ccccc1-c1ccccc1)c1cc2c(C(F)(F)F)cc(C3CC3)cc2o1` [Example 53, 6-Cyclopropyl-N-(2-phenylphenyl)sulfonyl-4-(trifluoromethyl)benzofuran-2-carboxamide]: 7.37, 6.16e-06 M and greater than 2e-05 M.
Turning to `CC(C)c1ccc2cc(C(=O)NS(=O)(=O)c3ccc(Cl)cc3Cl)oc2c1` [Example 57, N-(2,4-Dichlorobenzenesulfonyl)-6-(propan-2-yl)-1-benzofuran-2-carboxamide], the EC50 in assay [2] and in assay [3] was greater than 2e-05 M each time. Moreover, the concentration for half-maximal inhibition (IC50) in assay [4] was found to be 1.21e-05 M.
